Laboratory results reported in US6723695B1, “CTL epitopes from EBV” (priority 1997, dated 2004).
Entries after “also recorded” stand apart in the source; their conditions may differ. Like-named read-outs stand apart in the source and are kept apart here.

Experiments:
[1] = system: peptide-sensitized HLA-matched PHA blasts; assay type: cell-based, human
[2] = system: peptide-sensitized autologous PHA blasts
[3] = system: gp350- and gp85-specific CTL response; settings: mouse, in vivo, sc
[4] = biological target: T1, HLA A2 on T2 cells (Homo sapiens, UniProt P04439, D140Y/D185E/D98H/E176V/E277Q/G131W/G231S/I119V/I121R/I166T/I218V/L300P/L318F/N151K/N90K/P208A/P217A/Q86G/Q94H/R138H/R169H/T345S); experiment: MHC stabilisation assay on T2 cells (HLA A2 expression by FACS); assay type: cell-based; settings: peptide 200 μg/ml, 26° C. 14-16h then 37° C. 2-3h
T1 construct: using HLA A2-positive T2 cells; endogenous in cells; host or cells: T2 (174xCEM.T2), TAP-negative B x T hybrid cell line
Description: FIG. 1:MHC stablization analysis on T2 cells using potential HLA A2 binding peptides within LMP1. T2 cells were initially incubated with 200 μl of each of the peptides (200 μg/ml) for 14-16h at 26° C. followed by incubation at 37° C. for 2-3h. HLA A2 expression on these cells was analysed by FACS using the BB7.2 antibody. The dotted line indicates the background mean fluorescence intensity for HIA A2 on T2 cells without any peptide. The LMP1 peptides showing significant stablization of HLA A2 molecules on T2 cells are indicated by arrows.
FIG. 6:Effect of variant LMP1 peptides on the HLA A2 binding (panel A) and CTL recognition (panel B). For HLA A2 binding analysis on T2 cells were initially incubated with 200 μl of each of the peptides (200 μg/ml) for 14-16h at 26° C. followed by incubation at 37° C. for 2-3h. HLA A2 expression on these cells was analysed by FACS using BB7.2 antibody (panel A). The dotted line indicates the background mean fluorescence intensity for HLA A2 on T2 cells without any peptide. […] Results are expressed as percent specific lysis. […]
FIG. 8:MHC stabilization analysis on T2 cells using potential HLA A2 binding peptides within gp85 (panel A) and gp350 (panel B). […] HLA A2 expression on these cells was analysed by FACS using the BB7.2 antibody. The dotted line indicates the background mean fluorescence intensity for HLA A2 on T2 cells without any peptide. […]

[5] = system: CTL clone SB7; experiment: LMP1-specific CTL clone SB7, peptide recognition / 51Cr-release assay; assay type: cell-based, human; settings: donor; for recognition of peptide by CTL clone SB7: effector:target 4:1
[6] = system: peptide-sensitized autologous PHA blasts; experiment: Polyclonal CTLs stimulated with LMP1 peptides, 51Cr-release assay; assay type: cell-based, human; settings: HLA A2-positive donor; effector:target 20:1; targets 1 μg/ml peptide
[7] = system: EBV-positive lymphomas; settings: cited from earlier work

| Molecule | ex vivo CTL recognition of peptide-sensitized targets [1] | reactivity of polyclonal CTL effectors against peptide-sensitized PHA blasts [2] | CTL response in splenocytes [3] | lysis of targets by CTLs activated from splenocytes of immunized mice [3] | also measured |
| --- | --- | --- | --- | --- | --- |
| LMIIPLINV | recognised | recognized | – | – | – |
| SLVIVTTFV | strong reactivity | strong reactivity | induced strong CTL response | variable in vitro CTL lysis | – |
| TLFIGSHVV | – | recognized | induced strong CTL response | consistently showed strong lysis | ex vivo CTL response during acute infection [1]: not detectable |
| VLQWASLAV | strong reactivity; also recorded: recognised | strong reactivity | induced strong CTL response | variable in vitro CTL lysis | – |
| YFLEILWGL | – | – | – | – | expression of HLA A2 on T2 cells [4]: significantly increased; recognition of peptide by CTL clone SB7 [5]: no CTL activity |
| YLLEILWRL (Epstein Barr Virus) | – | – | – | – | expression of HLA A2 on T2 cells [4]: significantly increased; recognition of peptide by CTL clone SB7 [5]: efficiently recognized |
| YLQQNWWTL (Epstein Barr Virus) [LMP1 residues 159-167] | – | – | – | – | activation of polyclonal CTLs (specific lysis) [6]: significant activation of polyclonal CTLs; also recorded: weaker response; isolation of peptide-specific CTL clones [5]: No CTL clones specific; ex vivo CTL recognition of peptide-sensitized targets ([1]; all three IM patients, peptide 1 μg/ml): clear recognition |
| gp350: highly purified EBV structural glycoprotein gp350, subunit preparation (recombinant and affinity purified) (protein, UniProt P03200 1-907, looked up) Envelope glycoprotein GP350: MEAALLVCQYTIQSLIHLTGEDPGFFNVEIPEFPFYPTCNVCTADVNVTINFDVGGKKHQLDLDFGQLTPHTKAVYQPRGAFGGSENATNLFLLELLGAGELALTMRSKKLPINVTTGEEQQVSLESVDVYFQDVFGTMWCHHAEMQNPVYLIPETVPYIKWDNCNSTNITAVVRAQGLDVTLPLSLPTSAQDSNFSVKTEMLGNEIDIECIMEDGEISQVLPGDNKFNITCSGYESHVPSGGILTSTSPVATPIPGTGYAYSLRLTPRPVSRFLGNNSILYVFYSGNGPKASGGDYCIQSNIVFSDEIPASQDMPTNTTDITYVGDNATYSVPMVTSEDANSPNVTVTAFWAWPNNTETDFKCKWTLTSGTPSGCENISGAFASNRTFDITVSGLGTAPKTLIITRTATNATTTTHKVIFSKAPESTTTSPTLNTTGFADPNTTTGLPSSTHVPTNLTAPASTGPTVSTADVTSPTPAGTTSGASPVTPSPSPWDNGTESKAPDMTSSTSPVTTPTPNATSPTPAVTTPTPNATSPTPAVTTPTPNATSPTLGKTSPTSAVTTPTPNATSPTLGKTSPTSAVTTPTPNATSPTLGKTSPTSAVTTPTPNATGPTVGETSPQANATNHTLGGTSPTPVVTSQPKNATSAVTTGQHNITSSSTSSMSLRPSSNPETLSPSTSDNSTSHMPLLTSAHPTGGENITQVTPASISTHHVSTSSPAPRPGTTSQASGPGNSSTSTKPGEVNVTKGTPPQNATSPQAPSGQKTAVPTVTSTGGKANSTTGGKHTTGHGARTSTEPTTDYGGDSTTPRPRYNATTYLPPSTSSKLRPRWTFTSPPVTTAQATVPVPPTSQPRFSNLSMLVLQWASLAVLTLLLLLVMADCAFRRNLSTSHTYTTPPYDDAETYV | – | – | – | – | tumor formation / tumor outgrowth ([7]; cotton-top tamarins): inhibited tumor formation; serum neutralizing antibodies ([7]; subcutaneously with adjuvants (muramyl dipeptide or ISCOMs)): induced high levels of serum neutralizing antibodies |
